# Assay results reported in patent publication US4481201A, “Pharmaceutical composition containing N,N^3 -di-(β-bromopropionyl)-N^1,N^2 -dispirotripiperazinium dichloride” (Vsesojuzny Nauchno-Issledovatelsky Khimoko-Farmasevtichesky …, priority 1981, dated 1984).
# Entries after “also recorded” stand apart in the source; their conditions may differ.
# Tests used:
# Ienssen's sarcoma = assay: Growth of graft Ienssen sarcoma in rats; assay type: in vivo
# Description: (§1) The antitumor activity has been studied on white rats weighing 110-130 g, as well as on white noninbred and inbred mice weighing 17-21 g with ligated tumors. The treatment is started 5-7 days transplanting of solid tumors and the following day after the transplanting of leukotic strains. Use has been made of the following transplantable strains of the tumors:
# (§2) (1) rats: Ienssen's sarcoma, sarcoma 45, sarcoma M-1, sarcoma 536;
# (§3) The compounds of the general formula (I), wherein X represents Cl^- (compound 1), Br^- (compound 2) are well-soluble in an isotonic solution of sodium chloride and they are administered intraperitoneally. The doses of the compounds have been calculated in mg per kg of the animal bodyweight.
# sarcoma 45 = assay: Growth of graft sarcoma 45 in rats; assay type: in vivo; conditions: rats
# Description: as §1, §2, §3
# sarcoma 536 = assay: Growth of graft sarcoma 536 in rats; assay type: in vivo; conditions: rats
# Description: as §1, §2, §3
# sarcoma 180 = assay: Growth of graft sarcoma 180 in mice; assay type: in vivo, noninbred white mice; conditions: mice
# Description: as §1
# (2) noninbred white mice: sarcoma 180, sarcoma AK, sarcoma 37, carcinoma HK;
# as §3
# leukemia L1210 = assay: Life span of mice with transplantable leukemia L1210; assay type: in vivo, inbred mice; conditions: mice with transplantable leukemia L1210
# Description: as §1
# (§4) (3) inbred mice: leukemia La, leukemia L1210 and P-388.
# (§5) The activity of compounds relative to leukosis has been assessed by the life span (It) of treated animals as compared to the control ones. It --index of suppression of leukosis development is calculated by the formula: [formula]
# leukemia La = assay: Life span of mice with transplantable leukemia La; assay type: in vivo, inbred mice; conditions: mice with transplantable leukemia La
# Description: as §1, §4, §5
# leukemia P-388 = assay: Life span of mice with transplantable leukemia P-388; assay type: in vivo, inbred mice; conditions: mice with transplantable leukemia P-388
# Description: as §1, §4, §5
# [1] = Toxicity on single and repeated administration to mice; assay type: in vivo; conditions: mice
# Protocol: (3) acute toxicity of the compounds upon a single and repeated administration to white noninbred mice places into standard cages with 8 animals in each.
# In the investigation of toxic properties of the compounds according to the present invention there has been determined the absolutely lethal dose (DL95), average lethal dose (DL50) and MTD. For compounds 1 and 2 there were determined DL95 and DL50 on healthy white mice with the body mass of 18-21 g at a single and repeated (once a day, daily for 7 days) intraperitoneal administration.
# [2] = Distribution of C^14-labeled preparation within organs and tissues of rats with sarcoma M-1; assay type: in vivo; conditions: rats with sarcoma M-1, intravenous
# Description: Furthermore, the particular distribution of the preparation according to the present invention within organs and tissues should also be noted.
# (§6) In the case of administration of the preparation according to the present invention labeled with C^14, a higher level of radioactivity in blood is observed than in the case of prospidin labeled with C^14. A higher rate of accumulation of the preparation according to the present invention as compared to prospidin is observed in larynx, windpipe, bronchi, bone marrow, tumor and thyroid gland. The preparation according to the present invention labeled with C^14 is withdrawn from the organism within 24 hours after the intravenous administration mainly with urine, while C^14 --labeled prospidin is retained in the organism for a longer period.
# [3] = Withdrawal of radioactivity from the rats' organism; assay type: in vivo; set-up: concentration or dose not given beside the values; conditions: 24 hours after intravenous administration, C^14-labeled
# Description: as §6
# transplantable leukemia = assay: Activity relative to leukoses of inbred mice (overall); assay type: in vivo
# Description: (2) activity of the compounds relative to leukoses of inbred mice;
# as §1, §4, §5
# [4] = rats, per os, 145 mg/kg, 7 injections
# [5] = single intraperitoneal administration
smiles,measurement,setting,value
"OC(CCl)CN1CC[N+]2(CC1)CC[N+]1(CCN(CC(O)CCl)CC1)CC2 (centres unmarked) [Prospidin, 3,12-diaza-6,9-diazaniumdispiro-[5,2,5,2]-hexadecane-3,12-bis-(3-chloro-2-hydroxypropyl)-dichloride, reference compound]",Ch/T chemotherapeutical index (ratio of MTD to minimum effective dose),Ienssen's sarcoma; Ienssen sarcoma,27
same,"Change in the bodyweight of animals, test",Ienssen's sarcoma; [4],-9 g
same,"It, %",Ienssen's sarcoma; [4],+30%
same,"tumor growth suppression class, Sarcoma 45",sarcoma 45,++ (tumor growth suppression by 80-95%)
same,"tumor growth suppression class, Sarcoma 536",sarcoma 536,++ (tumor growth suppression by 80-95%)
same,"tumor growth suppression class, Sarcoma 180",sarcoma 180,++ (tumor growth suppression by 80-95%)
same,"It, % index of suppression of leukosis development",leukemia L1210,0%
same,Life span,leukemia L1210,8.1 ± 0.1 days
same,"It, % index of suppression of leukosis development",leukemia La,0%
same,Life span,leukemia La,6.6 ± 0 days
same,"It, % index of suppression of leukosis development",leukemia P-388,50%
same,Life span,leukemia P-388,14.8 ± 0.3 days
same,Ik index of toxic effect cumulation,[1]; intraperitoneal administration,58
same,DL95 (absolutely lethal dose),"[1]; repeated intraperitoneal administration (once a day, daily for 7 days)",250 mg/kg
same,DL50 (average lethal dose),[1]; [5],"1,000 mg/kg"
same,DL95 (absolutely lethal dose),[1]; [5],1200 mg/kg
same,LD50,"[1]; mouse, in vivo, ip, single intraperitoneal administration, read-out: DL50 (average lethal dose)",1000 mg/kg
same,"Coefficient of differential accumulation, Blood",[2]; 15 min,0.4
same,"Coefficient of differential accumulation, Bone marrow",[2]; 15 min,0.8
same,"Coefficient of differential accumulation, Bronchi",[2]; 15 min,2.16
same,"Coefficient of differential accumulation, Hypophysis",[2]; 15 min,2.4
same,"Coefficient of differential accumulation, Kidneys",[2]; 15 min,3.34
same,"Coefficient of differential accumulation, Larynx",[2]; 15 min,0.42
same,"Coefficient of differential accumulation, Liver",[2]; 15 min,1.43
same,"Coefficient of differential accumulation, Lungs",[2]; 15 min,1.54
same,"Coefficient of differential accumulation, Lymphonodes",[2]; 15 min,0.57
same,"Coefficient of differential accumulation, Spleen",[2]; 15 min,0.43
same,"Coefficient of differential accumulation, Thymus gland",[2]; 15 min,0.16
same,"Coefficient of differential accumulation, Tumor",[2]; 15 min,0.65
same,"Coefficient of differential accumulation, Tyroid gland",[2]; 15 min,1.2
same,"Coefficient of differential accumulation, Windpipe",[2]; 15 min,0.38
same,"Coefficient of differential accumulation, Blood",[2]; 30 min,0.1
same,"Coefficient of differential accumulation, Bone marrow",[2]; 30 min,0.6
same,"Coefficient of differential accumulation, Bronchi",[2]; 30 min,0.82
same,"Coefficient of differential accumulation, Hypophysis",[2]; 30 min,1.65
same,"Coefficient of differential accumulation, Kidneys",[2]; 30 min,0.67
same,"Coefficient of differential accumulation, Larynx",[2]; 30 min,0.32
same,"Coefficient of differential accumulation, Liver",[2]; 30 min,0.75
same,"Coefficient of differential accumulation, Lungs",[2]; 30 min,0.45
same,"Coefficient of differential accumulation, Lymphonodes",[2]; 30 min,0.48
same,"Coefficient of differential accumulation, Spleen",[2]; 30 min,0.21
same,"Coefficient of differential accumulation, Thymus gland",[2]; 30 min,0.06
same,"Coefficient of differential accumulation, Tumor",[2]; 30 min,0.37
same,"Coefficient of differential accumulation, Tyroid gland",[2]; 30 min,1.06
same,"Coefficient of differential accumulation, Windpipe",[2]; 30 min,0.21
same,"Coefficient of differential accumulation, Blood",[2]; 60 min,0.07
same,"Coefficient of differential accumulation, Bone marrow",[2]; 60 min,0.52
same,"Coefficient of differential accumulation, Bronchi",[2]; 60 min,0.5
same,"Coefficient of differential accumulation, Hypophysis",[2]; 60 min,1.47
same,"Coefficient of differential accumulation, Kidneys",[2]; 60 min,0.56
same,"Coefficient of differential accumulation, Larynx",[2]; 60 min,0.14
same,"Coefficient of differential accumulation, Liver",[2]; 60 min,0.67
same,"Coefficient of differential accumulation, Lungs",[2]; 60 min,0.2
same,"Coefficient of differential accumulation, Lymphonodes",[2]; 60 min,0.14
same,"Coefficient of differential accumulation, Spleen",[2]; 60 min,0.11
same,"Coefficient of differential accumulation, Thymus gland",[2]; 60 min,0.05
same,"Coefficient of differential accumulation, Tumor",[2]; 60 min,0.3
same,"Coefficient of differential accumulation, Tyroid gland",[2]; 60 min,0.75
same,"Coefficient of differential accumulation, Windpipe",[2]; 60 min,0.1
same,"Coefficient of differential accumulation, Blood",[2]; 24 hours,0.01
same,"Coefficient of differential accumulation, Bone marrow",[2]; 24 hours,0.18
same,"Coefficient of differential accumulation, Bronchi",[2]; 24 hours,0.25
same,"Coefficient of differential accumulation, Hypophysis",[2]; 24 hours,0.55
same,"Coefficient of differential accumulation, Kidneys",[2]; 24 hours,0.15
same,"Coefficient of differential accumulation, Larynx",[2]; 24 hours,0.05
same,"Coefficient of differential accumulation, Liver",[2]; 24 hours,0.13
same,"Coefficient of differential accumulation, Lungs",[2]; 24 hours,0.06
same,"Coefficient of differential accumulation, Lymphonodes",[2]; 24 hours,0.04
same,"Coefficient of differential accumulation, Spleen",[2]; 24 hours,0.06
same,"Coefficient of differential accumulation, Thymus gland",[2]; 24 hours,0.02
same,"Coefficient of differential accumulation, Tumor",[2]; 24 hours,0.07
same,"Coefficient of differential accumulation, Tyroid gland",[2]; 24 hours,0.22
same,"Coefficient of differential accumulation, Windpipe",[2]; 24 hours,0.07
same,"Withdrawal of radioactivity, Feces",[3],7.0%
same,"Withdrawal of radioactivity, Total",[3],75.0%
same,"Withdrawal of radioactivity, Urina",[3],68.0%
same,effect on transplantable leukemia in mice,transplantable leukemia,does not affect the development of leukemiae; also recorded: does not provide any effect
